Calls of active or inactive are those of the source.
Legend:
HEK293 [1] = assay: cells; assay type: functional, cell-based; details: Homo sapiens
HEK293 [2] = assay: cells; assay type: functional, cell-based; details: Homo sapiens; remark: listed apart in the source
HEK293 [3] = assay: NOD1 signaling inhibitors, primary screen, cell-based, luminescence, uHTS (AID 1578); assay type: functional; details: Homo sapiens
HEK293 [4] = assay: NOD2 signaling inhibitors in MDP-stimulated cells, cell-based, uHTS, luminescence (AID 2001); assay type: functional; details: Homo sapiens
[5] = inhibitors of intracellular T. cruzi replication, confirmation, NIH3T3 host cells, beta-gal luminescence (AID 2044); assay type: functional, cell-based;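 further: intracellular parasites grown in NIH/3T3 mouse fibroblasts as host cells; luminescent beta-galactosidase reporter signal from transgenic T. cruzi replicating inside host cells; inhibitors lower the luminescence signal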
Mucolipin-3 = Mucolipin-3 (Homo sapiens, UniProt Q8TDD5); assay: Fluorescence counterscreen assay for […] agonists: dose response cell-based high-throughput screening assay to identify agonists of the transient receptor potential channel ML3 (TRPML3). [Related pubchem assays: 1424, 1448 ]; assay type: functional
Ion channel NompC = Ion channel NompC (Danio rerio, UniProt Q7T1G6); assay: Dose response cell-based high-throughput screening assay for agonists of the transient receptor potential channel N1 (TRPN1). [Related pubchem assays (depositor defined):AID1424, AID1448]; assay type: functional
[6] = cytotoxicity toward NIH3T3 fibroblasts, dose response, counter-screen, cell-based, ATP luminescence, mouse fibroblasts (AID 2010); assay type: functional;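 further: cells exposed to compound for about 90 hours before reading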
[7] = target: T1, Calpain-2 catalytic subunit (Sus scrofa, UniProt P43367); assay: pig calpain II inhibitor potency, dose response, biochemical, fluorogenic peptide substrate (AID 1420); assay type: functional
T1 sequence (P43367 whole entry): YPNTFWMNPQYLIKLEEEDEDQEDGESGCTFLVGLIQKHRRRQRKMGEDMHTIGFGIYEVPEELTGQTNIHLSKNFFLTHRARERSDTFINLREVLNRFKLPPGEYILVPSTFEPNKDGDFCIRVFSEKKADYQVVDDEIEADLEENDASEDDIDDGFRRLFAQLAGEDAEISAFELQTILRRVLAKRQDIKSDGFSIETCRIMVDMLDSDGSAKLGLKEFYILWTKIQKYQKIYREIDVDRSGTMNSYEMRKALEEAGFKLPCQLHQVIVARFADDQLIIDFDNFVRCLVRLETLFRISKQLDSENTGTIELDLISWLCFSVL

[8] = target: T2, Runt-related transcription factor 1/Core-binding factor subunit beta (Homo sapiens, UniProt Q01196+Q13951); assay: inhibitors of RUNX1 Runt–CBFb-SMMHC binding, primary screen, biochemical, FRET, Cerulean-Runt, Venus-CBFb-SMMHC, uHTS (AID 1434); assay type: protein assay;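 further: partner is the CBFb-SMMHC leukemia fusion protein rather than wild-type CBFb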
Fatty acid synthase [9] = target: T3, Fatty acid synthase (Homo sapiens, UniProt P49327); assay: FAS thioesterase domain inhibitors, dose response, biochemical, endpoint fluorescence intensity, uHTS hits (AID 624327); assay type: functional;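 further: fluorescence from hydrolysis of an O-methyl fluorescein acyl ester substrate by the enzyme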
[10] = target: T2, Runt-related transcription factor 1/Core-binding factor subunit beta; assay: inhibitors of RUNX1 Runt–CBFb-SMMHC binding, biochemical, TR-FRET (AID 1438); assay type: protein assay
Fatty acid synthase [11] = target: T3, Fatty acid synthase; assay: FAS thioesterase domain inhibitors, dose response, biochemical, kinetic fluorescence intensity (AID 624326); assay type: functional;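 further: rate of fluorescence rise from hydrolysis of a fluorogenic O-methyl fluorescein ester substrate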
Cytochrome P450 2C19 = Cytochrome P450 2C19 (Homo sapiens, UniProt P33261); assay: Cytochrome panel assay with activity outcomes. Panel member name: p450-cyp2c19 Compounds with AC50 equal or less than 10 uM are considered active; assay type: functional; details: read-out: AC50
Coagulation factor XII = target: T4, Coagulation factor XII (Homo sapiens, UniProt P00748); assay: FXIIa inhibitor potency, concentration-response, biochemical (AID 716); assay type: functional
T4 sequence (P00748 whole entry): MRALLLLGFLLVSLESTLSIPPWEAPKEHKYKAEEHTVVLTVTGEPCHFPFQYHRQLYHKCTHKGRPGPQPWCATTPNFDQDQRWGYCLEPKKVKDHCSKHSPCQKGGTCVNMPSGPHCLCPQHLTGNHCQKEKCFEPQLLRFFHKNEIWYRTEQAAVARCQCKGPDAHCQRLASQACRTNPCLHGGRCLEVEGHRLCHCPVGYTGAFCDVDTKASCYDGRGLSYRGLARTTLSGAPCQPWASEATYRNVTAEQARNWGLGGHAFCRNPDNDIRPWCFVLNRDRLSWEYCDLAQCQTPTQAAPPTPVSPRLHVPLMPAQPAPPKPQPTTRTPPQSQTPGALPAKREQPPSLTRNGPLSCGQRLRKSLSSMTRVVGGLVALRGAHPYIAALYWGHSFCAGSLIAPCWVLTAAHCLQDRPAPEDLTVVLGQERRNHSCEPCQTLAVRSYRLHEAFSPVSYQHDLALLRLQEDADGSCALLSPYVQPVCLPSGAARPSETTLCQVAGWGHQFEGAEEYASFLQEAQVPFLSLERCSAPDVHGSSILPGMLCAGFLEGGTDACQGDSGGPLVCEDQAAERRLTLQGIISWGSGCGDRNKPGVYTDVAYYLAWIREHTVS

[12] = target: Dual specificity protein phosphatase 3 (Homo sapiens, UniProt P51452); assay: SAR VHR1 Fluorescent Assay for In Vitro dose response studies Set 2. [Related pubchem assays (depositor defined):AID1654, AID1661, AID1878]; assay type: functional
[13] = target: T5, Tyrosine-protein phosphatase non-receptor type 7 (Homo sapiens, UniProt P35236); assay: SAR analysis of chemical inhibitors of HePTP using a Fluorescent assay - Set 2. [Related pubchem assays (depositor defined):AID1059, AID1077, AID1661, AID2085, AID521]; assay type: functional
T5 sequence (P35236 whole entry): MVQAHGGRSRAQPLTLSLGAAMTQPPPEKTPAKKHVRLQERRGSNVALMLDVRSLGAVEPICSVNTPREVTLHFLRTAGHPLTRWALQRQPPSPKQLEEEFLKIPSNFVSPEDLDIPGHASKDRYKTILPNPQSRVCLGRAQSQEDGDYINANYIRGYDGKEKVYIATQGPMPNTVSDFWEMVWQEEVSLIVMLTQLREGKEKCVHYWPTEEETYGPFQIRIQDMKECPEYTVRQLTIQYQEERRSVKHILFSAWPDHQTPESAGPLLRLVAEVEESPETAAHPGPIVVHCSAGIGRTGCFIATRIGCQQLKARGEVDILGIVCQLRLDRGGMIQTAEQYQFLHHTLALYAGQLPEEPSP

Cannabinoid receptor 2 [14] = target: T6, Cannabinoid receptor 2 (Homo sapiens, UniProt P34972); assay: SAR analysis of agonists of the Cannabinoid Receptor 2 using an Image-Based Assay - Set 2. [Related pubchem assays (depositor defined):AID1961, AID1965]; assay type: functional
[15] = target: G-protein coupled receptor 55 (Homo sapiens, UniProt Q9Y2T6); assay: SAR analysis of selective Agonists of GPR55 using an Image-Based Assay - Set 2. [Related pubchem assays (depositor defined):AID1961, AID1965]; assay type: functional
Cannabinoid receptor 1 [16] = target: T7, Cannabinoid receptor 1 (Homo sapiens, UniProt P21554); assay: SAR analysis of agonists of the Cannabinoid Receptor 1 using an Image-Based Assay - Set 3. [Related pubchem assays (depositor defined):AID1961, AID1965]; assay type: functional
[17] = target: T8, G-protein coupled receptor 35 (Homo sapiens, UniProt Q9HC97); assay: SAR analysis of Agonists of the GPR35 Receptor using an Image-Based Assay - Set 3. [Related pubchem assays (depositor defined):AID1961, AID1965]; assay type: functional
Cannabinoid receptor 2 [18] = target: T6, Cannabinoid receptor 2; assay: SAR analysis of antagonists of the Cannabinoid Receptor 2 using an Image-Based Assay - Set 2. [Related pubchem assays (depositor defined):AID1961, AID1965]; assay type: functional
[19] = target: T8, G-protein coupled receptor 35; assay: SAR analysis of Antagonists of the GPR35 Receptor using an Image-Based Assay - Set 4. [Related pubchem assays (depositor defined):[…]]; assay type: functional
Cannabinoid receptor 1 [20] = target: T7, Cannabinoid receptor 1; assay: SAR analysis of antagonists of the Cannabinoid Receptor 1 using an Image-Based Assay - Set 3. [Related pubchem assays (depositor defined):AID1961, AID1965]; assay type: functional
[21] = target: T9, E3 ubiquitin-protein ligase XIAP (Homo sapiens, UniProt P98170); assay: XIAP antagonists, biochemical, IAP family, fluorescence polarization (AID 1018); assay type: functional
[22] = target: T9, E3 ubiquitin-protein ligase XIAP; assay: Counter Screen using XIAP-Bir3 for Chemical Antagonists of Bir1/2 domains of IAP-family anti-apoptotic proteins. [Related pubchem assays (depositor defined):AID1018, AID1449, AID1514, AID1638, AID1749, AID1750, AID488957, AID488963]

T9 sequence (P98170 whole entry): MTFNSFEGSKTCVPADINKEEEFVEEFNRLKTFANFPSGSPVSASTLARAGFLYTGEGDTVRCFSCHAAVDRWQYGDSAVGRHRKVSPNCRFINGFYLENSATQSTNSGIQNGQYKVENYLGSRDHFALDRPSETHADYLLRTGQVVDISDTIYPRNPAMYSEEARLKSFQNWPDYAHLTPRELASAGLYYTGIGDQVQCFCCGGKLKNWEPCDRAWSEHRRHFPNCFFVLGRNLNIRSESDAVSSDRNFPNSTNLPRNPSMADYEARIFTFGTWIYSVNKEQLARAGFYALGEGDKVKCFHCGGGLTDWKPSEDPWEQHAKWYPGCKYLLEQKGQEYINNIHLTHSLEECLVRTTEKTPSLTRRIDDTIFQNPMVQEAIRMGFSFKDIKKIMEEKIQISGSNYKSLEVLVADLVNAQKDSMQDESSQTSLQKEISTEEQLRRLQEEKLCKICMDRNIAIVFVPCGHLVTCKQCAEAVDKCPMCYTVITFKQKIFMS
T2 sequence (Q01196 whole entry, the tested form may be a part): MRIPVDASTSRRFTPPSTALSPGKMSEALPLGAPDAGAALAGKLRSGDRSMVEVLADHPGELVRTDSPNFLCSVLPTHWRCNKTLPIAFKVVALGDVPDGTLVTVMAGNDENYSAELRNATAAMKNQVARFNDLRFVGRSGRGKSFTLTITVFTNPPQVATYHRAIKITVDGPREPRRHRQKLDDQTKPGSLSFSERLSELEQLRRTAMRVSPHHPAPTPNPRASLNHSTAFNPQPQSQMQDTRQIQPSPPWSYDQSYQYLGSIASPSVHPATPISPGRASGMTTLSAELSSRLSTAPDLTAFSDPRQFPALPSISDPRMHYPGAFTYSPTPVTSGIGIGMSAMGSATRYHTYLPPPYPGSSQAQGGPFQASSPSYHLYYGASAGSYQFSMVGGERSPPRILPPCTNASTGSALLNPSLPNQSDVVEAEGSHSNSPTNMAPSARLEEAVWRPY
T2 sequence (Q13951 whole entry, the tested form may be a part): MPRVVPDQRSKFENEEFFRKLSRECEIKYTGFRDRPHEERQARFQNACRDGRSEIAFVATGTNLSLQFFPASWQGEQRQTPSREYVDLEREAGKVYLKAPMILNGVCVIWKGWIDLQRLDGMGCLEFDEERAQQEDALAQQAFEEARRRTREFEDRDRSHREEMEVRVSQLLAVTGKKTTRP
T3 sequence (P49327 whole entry, the tested form may be a part): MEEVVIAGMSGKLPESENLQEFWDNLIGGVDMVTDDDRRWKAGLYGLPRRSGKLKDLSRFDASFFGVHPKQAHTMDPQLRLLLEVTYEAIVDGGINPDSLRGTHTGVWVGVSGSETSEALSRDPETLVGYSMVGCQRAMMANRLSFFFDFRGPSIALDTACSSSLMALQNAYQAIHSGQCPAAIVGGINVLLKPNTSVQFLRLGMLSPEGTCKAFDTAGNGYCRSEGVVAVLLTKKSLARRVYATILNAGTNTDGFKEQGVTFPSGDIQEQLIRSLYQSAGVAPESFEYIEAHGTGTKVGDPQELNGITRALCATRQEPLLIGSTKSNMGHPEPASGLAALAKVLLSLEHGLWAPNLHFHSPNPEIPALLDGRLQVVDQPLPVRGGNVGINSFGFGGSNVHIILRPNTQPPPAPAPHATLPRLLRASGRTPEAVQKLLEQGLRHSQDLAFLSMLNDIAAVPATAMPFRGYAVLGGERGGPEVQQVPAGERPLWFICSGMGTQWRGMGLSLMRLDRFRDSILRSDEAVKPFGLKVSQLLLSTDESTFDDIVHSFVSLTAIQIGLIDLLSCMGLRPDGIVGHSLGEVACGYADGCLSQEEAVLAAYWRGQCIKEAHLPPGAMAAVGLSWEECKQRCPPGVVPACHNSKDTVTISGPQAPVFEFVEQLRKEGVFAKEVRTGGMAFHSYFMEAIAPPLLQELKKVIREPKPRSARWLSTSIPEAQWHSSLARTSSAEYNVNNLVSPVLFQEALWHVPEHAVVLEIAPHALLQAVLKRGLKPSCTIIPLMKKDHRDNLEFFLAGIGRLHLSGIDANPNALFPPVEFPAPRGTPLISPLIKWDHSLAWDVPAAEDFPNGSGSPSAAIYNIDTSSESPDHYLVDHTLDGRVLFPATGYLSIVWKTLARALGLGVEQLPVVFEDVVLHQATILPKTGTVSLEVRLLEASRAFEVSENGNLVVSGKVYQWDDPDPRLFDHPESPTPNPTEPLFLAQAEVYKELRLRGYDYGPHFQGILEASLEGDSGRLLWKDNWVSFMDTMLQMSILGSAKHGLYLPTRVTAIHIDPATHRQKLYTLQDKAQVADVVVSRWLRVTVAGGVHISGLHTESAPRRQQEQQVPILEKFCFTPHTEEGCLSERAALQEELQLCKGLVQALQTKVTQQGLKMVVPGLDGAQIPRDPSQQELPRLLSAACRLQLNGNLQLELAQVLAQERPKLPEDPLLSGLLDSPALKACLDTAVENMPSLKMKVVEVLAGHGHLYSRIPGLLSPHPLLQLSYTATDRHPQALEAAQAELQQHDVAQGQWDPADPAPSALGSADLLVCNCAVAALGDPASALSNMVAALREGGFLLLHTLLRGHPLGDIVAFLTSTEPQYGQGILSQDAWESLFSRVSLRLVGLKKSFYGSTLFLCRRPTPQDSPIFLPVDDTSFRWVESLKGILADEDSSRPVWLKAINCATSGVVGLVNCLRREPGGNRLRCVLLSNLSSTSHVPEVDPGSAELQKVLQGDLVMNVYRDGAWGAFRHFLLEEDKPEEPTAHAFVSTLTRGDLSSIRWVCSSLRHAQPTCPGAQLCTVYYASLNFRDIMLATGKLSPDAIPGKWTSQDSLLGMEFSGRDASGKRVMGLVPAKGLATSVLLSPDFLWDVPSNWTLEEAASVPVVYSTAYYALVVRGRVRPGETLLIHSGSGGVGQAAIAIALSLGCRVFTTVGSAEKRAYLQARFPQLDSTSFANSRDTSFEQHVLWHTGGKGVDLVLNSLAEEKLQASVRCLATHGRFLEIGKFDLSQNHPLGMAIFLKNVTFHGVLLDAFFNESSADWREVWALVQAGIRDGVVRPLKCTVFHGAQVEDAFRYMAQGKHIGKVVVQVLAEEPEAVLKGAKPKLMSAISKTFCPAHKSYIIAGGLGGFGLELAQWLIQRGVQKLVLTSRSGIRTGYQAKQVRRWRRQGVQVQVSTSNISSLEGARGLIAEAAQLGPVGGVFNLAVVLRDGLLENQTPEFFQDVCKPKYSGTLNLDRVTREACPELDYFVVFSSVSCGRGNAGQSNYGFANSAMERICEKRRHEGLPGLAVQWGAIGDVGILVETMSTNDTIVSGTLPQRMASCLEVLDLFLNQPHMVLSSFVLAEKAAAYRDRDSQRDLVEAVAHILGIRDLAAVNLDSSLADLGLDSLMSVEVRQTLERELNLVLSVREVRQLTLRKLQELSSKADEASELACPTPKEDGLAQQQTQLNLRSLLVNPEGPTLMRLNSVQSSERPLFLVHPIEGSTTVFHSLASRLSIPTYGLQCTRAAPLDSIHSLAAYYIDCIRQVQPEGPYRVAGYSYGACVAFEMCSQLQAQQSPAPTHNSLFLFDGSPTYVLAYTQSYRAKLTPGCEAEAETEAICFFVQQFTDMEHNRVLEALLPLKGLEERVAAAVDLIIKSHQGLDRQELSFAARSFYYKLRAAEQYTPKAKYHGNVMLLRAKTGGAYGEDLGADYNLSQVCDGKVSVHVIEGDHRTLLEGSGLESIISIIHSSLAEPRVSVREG
T6 sequence (P34972 whole entry): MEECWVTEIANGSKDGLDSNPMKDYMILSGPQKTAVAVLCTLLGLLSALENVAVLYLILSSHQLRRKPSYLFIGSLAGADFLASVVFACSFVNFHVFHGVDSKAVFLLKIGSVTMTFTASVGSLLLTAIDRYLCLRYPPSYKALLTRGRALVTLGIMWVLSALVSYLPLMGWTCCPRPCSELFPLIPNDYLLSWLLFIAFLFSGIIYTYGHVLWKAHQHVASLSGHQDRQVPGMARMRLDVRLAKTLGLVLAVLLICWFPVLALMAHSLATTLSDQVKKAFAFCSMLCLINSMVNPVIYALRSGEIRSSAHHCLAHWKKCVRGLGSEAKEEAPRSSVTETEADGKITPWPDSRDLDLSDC
T8 sequence (Q9HC97 whole entry): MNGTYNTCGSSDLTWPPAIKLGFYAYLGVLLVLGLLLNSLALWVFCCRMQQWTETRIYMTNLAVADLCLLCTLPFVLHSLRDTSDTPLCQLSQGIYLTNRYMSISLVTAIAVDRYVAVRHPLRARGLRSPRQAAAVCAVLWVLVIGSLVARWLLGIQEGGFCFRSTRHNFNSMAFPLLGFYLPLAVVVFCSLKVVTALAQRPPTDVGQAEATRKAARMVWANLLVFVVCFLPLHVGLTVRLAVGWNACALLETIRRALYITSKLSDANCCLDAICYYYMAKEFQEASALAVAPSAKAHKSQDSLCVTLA
T7 sequence (P21554 whole entry): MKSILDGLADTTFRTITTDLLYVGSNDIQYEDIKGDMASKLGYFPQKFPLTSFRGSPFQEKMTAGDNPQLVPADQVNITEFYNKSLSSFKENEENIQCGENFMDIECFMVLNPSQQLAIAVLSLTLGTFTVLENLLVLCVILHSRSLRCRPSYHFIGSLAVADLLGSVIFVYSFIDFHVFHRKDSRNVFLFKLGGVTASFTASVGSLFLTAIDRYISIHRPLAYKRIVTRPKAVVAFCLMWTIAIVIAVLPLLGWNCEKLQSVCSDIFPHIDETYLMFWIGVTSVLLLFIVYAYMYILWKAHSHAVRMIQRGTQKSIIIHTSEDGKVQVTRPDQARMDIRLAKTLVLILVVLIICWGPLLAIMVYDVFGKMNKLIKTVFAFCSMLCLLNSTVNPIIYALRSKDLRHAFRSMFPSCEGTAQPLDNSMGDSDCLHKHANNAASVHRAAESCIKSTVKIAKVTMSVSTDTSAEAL
Dual specificity protein phosphatase 3, sequence (P51452 whole entry): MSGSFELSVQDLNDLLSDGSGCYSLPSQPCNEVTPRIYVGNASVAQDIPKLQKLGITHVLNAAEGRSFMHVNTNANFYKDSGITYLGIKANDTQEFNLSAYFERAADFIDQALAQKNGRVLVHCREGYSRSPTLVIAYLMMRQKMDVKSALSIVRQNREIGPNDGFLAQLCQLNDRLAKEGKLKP

SMILES: O=C(Cc1ccc(Cl)cc1)Nc1ncc([N+](=O)[O-])s1
- IC50 (HEK293 [1]): 9.12 µM (active)
- IC50 (HEK293 [2]): > 20 µM (inactive)
- EC50 (HEK293 [3]): 4.23 µM (active)
- IC50 (HEK293 [4]): 10.9 µM (inactive)
- EC50 [5]: 0.589 µM (active)
- EC50 (Mucolipin-3): > 29.9 µM (not active)
- EC50 (Ion channel NompC): > 29.9 µM (inactive)
- EC50 [6]: > 60 µM (inconclusive)
- IC50 [7]: < 0.4 µM (not active)

SMILES: Cc1cccn2c(=O)c(/C=C(\C#N)C(N)=O)c(N3CCN(Cc4ccc5c(c4)OCO5)CC3)nc12
- IC50 [8]: > 100 µM (inactive)
- IC50 (Fatty acid synthase [9]): 7.79 µM (active)
- IC50 [10]: > 100 µM (inactive)
- IC50 (Fatty acid synthase [11]): 9.39 µM (active)

SMILES: CCOC(=O)N1CCN(C(=O)c2ccc(Cl)c(S(=O)(=O)N3CCOCC3)c2)CC1
- AC50 (Cytochrome P450 2C19): 39.8 µM (inconclusive)
- IC50 (Coagulation factor XII): > 50 µM (inactive)

SMILES: Fc1ccc(CNC(=S)c2ccc(Br)cc2)cc1C(F)(F)F
- IC50 [12]: 19.3 µM (active)
- IC50 [13]: 23.4 µM (active)

SMILES: CN(C)S(=O)(=O)c1ccc(N2CCCC2)c(C(=O)N2CCN(c3cccc(Cl)c3)CC2)c1
- EC50 (Cannabinoid receptor 2 [14]): > 32 µM (inactive)
- EC50 [15]: 0.608 µM (active)
- EC50 (Cannabinoid receptor 1 [16]): > 32 µM (inactive)
- EC50 [17]: > 32 µM (inactive)
- IC50 (Cannabinoid receptor 2 [18]): > 32 µM (inactive)
- IC50 [19]: > 32 µM (inactive)
- IC50 (Cannabinoid receptor 1 [20]): 27.1 µM (inactive)

SMILES: COc1cc(C(=O)O)cc(NC(=O)c2cccs2)c1OC
- IC50 [21]: > 100 µM (not active)
- IC50 [22]: > 100 µM (inactive)
